Experimental data published in US10428051B2 (priority 2015, dated 2019).
Where two headings read alike, the source gives them in different places.

Biological target: human σ1 receptor (Homo sapiens, UniProt Q99720)
Assay: biochemical
Type: binding
Design: μ and σ1 dual (binding to the σ1 receptor and the μ-opioid receptor expressed as Ki): key to the marks not given beside the values

Chain of human σ1 receptor (Q99720 whole entry): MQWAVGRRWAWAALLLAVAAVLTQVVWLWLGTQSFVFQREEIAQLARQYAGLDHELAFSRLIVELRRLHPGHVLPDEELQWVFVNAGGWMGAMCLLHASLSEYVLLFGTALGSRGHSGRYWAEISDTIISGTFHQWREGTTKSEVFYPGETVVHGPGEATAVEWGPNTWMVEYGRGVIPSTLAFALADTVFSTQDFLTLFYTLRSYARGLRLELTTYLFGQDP

| SMILES | Ki [nM] | other results |
| --- | --- | --- |
| CCC(=O)N(CC1(N2CCN(C(C)c3ccccc3)CC2)CCOCC1)c1ccccn1 (stereo not shown) [Example 134, N-((4-(4-(1-phenylethyl)piperazin-1-yl)tetrahydro-2H-pyran-4-yl)methyl)-N-(pyridin-2-yl)propionamide] | – | μ and σ1 dual (binding to the σ1 receptor and the μ-opioid receptor expressed as Ki): ++ |
| CCC(=O)N(CC1(N2CCN(Cc3cccc(F)c3)CC2)CCOCC1)c1ccccn1 [Example 110, N-((4-(4-(3-fluorobenzyl)piperazin-1-yl)tetrahydro-2H-pyran-4-yl)methyl)-N-(pyridin-2-yl)propionamide] | < 500 | – |
| CCC(=O)N(CC1(N2CCN(CCC(C)C)CC2)CCOC(C)(C)C1)c1cccc(C#N)n1 (stereo not shown) [Example 88, N-(6-cyanopyridin-2-yl)-N-((4-(4-isopentylpiperazin-1-yl)-2,2-dimethyltetrahydro-2H-pyran-4-yl)methyl)propionamide] | – | μ and σ1 dual (binding to the σ1 receptor and the μ-opioid receptor expressed as Ki): ++ |
| CCC(=O)N(CC1(N2CCN(Cc3ccccc3)CC2)CCOC(C)(C)C1)c1ncccc1C(F)(F)F (stereo not shown) [Example 67, N-((4-(4-benzylpiperazin-1-yl)-2,2-dimethyltetrahydro-2H-pyran-4-yl)methyl)-N-(3-(trifluoromethyl)pyridin-2-yl)propionamide] | < 500 | – |
| CCC(=O)N(CC1(N2CCN(C(C)CC)CC2)CCOCC1)c1cccc(C(F)(F)F)n1 (stereo not shown) [Example 139, N-((4-(4-sec-butylpiperazin-1-yl)tetrahydro-2H-pyran-4-yl)methyl)-N-(6-(trifluoromethyl)pyridin-2-yl)propionamide] | – | μ and σ1 dual (binding to the σ1 receptor and the μ-opioid receptor expressed as Ki): ++ |
| CCOCCN1CCN(C2(CN(C(=O)CC)c3cccc(C(F)(F)F)n3)CCSCC2)CC1 [Example 205, N-((4-(4-(2-ethoxyethyl)piperazin-1-yl)tetrahydro-2H-thiopyran-4-yl)methyl)-N-(6-(trifluoromethyl)pyridin-2-yl)propionamide] | < 500 | – |
| CCC(=O)N(CC1(N2CCN(Cc3ccccc3F)CC2)CC1)c1ccccc1 [Example 118, N-((1-(4-(2-fluorobenzyl)piperazin-1-yl)cyclopropyl)methyl)-N-phenylpropionamide] | < 100 | – |
| CCC(=O)N(CC1(N2CCN(Cc3ccccc3)CC2)CC1)c1cncc(F)c1 [Example 93, N-((1-(4-benzylpiperazin-1-yl)cyclopropyl)methyl)-N-(5-fluoropyridin-3-yl)propionamide] | < 500 | – |
| CCC(=O)N(CC1(N2CCN(CC(C)C)CC2)CCOCC1)c1cccc(C#N)n1 [Example 85, N-(6-cyanopyridin-2-yl)-N-((4-(4-isobutylpiperazin-1-yl)tetrahydro-2H-pyran-4-yl)methyl)propionamide] | > 500 | – |
| CCC(=O)N(CC1(N2CCN(CCOC3CC3)CC2)CCOCC1)c1cccc(C(F)(F)F)n1 [Example 183, N-((4-(4-(2-cyclopropoxyethyl)piperazin-1-yl)tetrahydro-2H-pyran-4-yl)methyl)-N-(6-(trifluoromethyl)pyridin-2-yl)propionamide] | < 500 | – |
| CCC(=O)N(CC1(C2CCN(CC(C)C)CC2)CCOCC1)c1cccc(C(F)(F)F)n1 [Example 178, N-((4-(1-isobutylpiperidin-4-yl)tetrahydro-2H-pyran-4-yl)methyl)-N-(6-(trifluoromethyl)pyridin-2-yl)propionamide] | – | μ and σ1 dual (binding to the σ1 receptor and the μ-opioid receptor expressed as Ki): ++ |
| CCC(=O)N(CC1(N2CCN(Cc3ccccc3)CC2)CCOC2(CCCC2)C1)c1ccccn1 (stereo not shown) [Example 17, N-((9-(4-benzylpiperazin-1-yl)-6-oxaspiro[4.5]decan-9-yl)methyl)-N-(pyridin-2-yl)propionamide] | < 500 | – |
| CCOCCN1CC2CN(C3(CN(C(=O)CC)c4cccc(C(F)(F)F)n4)CCOCC3)CC2C1 (stereo not shown) [Example 200, N-((4-(5-(2-ethoxyethyl)hexahydropyrrolo[3,4-c]pyrrol-2(1H)-yl)tetrahydro-2H-pyran-4-yl)methyl)-N-(6-(trifluoromethyl)pyridin-2-yl)propionamide] | – | Ki (read-out: μ and σ1 dual (binding to the σ1 receptor and the μ-opioid receptor expressed as Ki)): > 500 nM |
| CCC(=O)N(CC1(N2CCN(Cc3cccc(F)c3)CC2)CCOCC1)c1ccccc1 [Example 100, N-((4-(4-(3-fluorobenzyl)piperazin-1-yl)tetrahydro-2H-pyran-4-yl)methyl)-N-phenylpropionamide] | < 100 | – |
| CCC(=O)N(CC1(N2CCN(CC(C)C)CC2)CCOCC1)c1ncccc1C#N [Example 62, N-(3-cyanopyridin-2-yl)-N-((4-(4-isobutylpiperazin-1-yl)tetrahydro-2H-pyran-4-yl)methyl)propionamide] | – | μ and σ1 dual (binding to the σ1 receptor and the μ-opioid receptor expressed as Ki): ++ |
| CCC(=O)N(CC1(N2CCN(CCOC(F)(F)F)CC2)CCOCC1)c1cccc(C(F)(F)F)n1 [Example 141, N-((4-(4-(2-(trifluoromethoxy)ethyl)piperazin-1-yl)tetrahydro-2H-pyran-4-yl)methyl)-N-(6-(trifluoromethyl)pyridin-2-yl)propionamide] | < 500 | – |
| CCC(=O)N(CC1(N2CCN(Cc3ccccc3)CC2)CC1)c1cccc(C#N)c1 [Example 96, N-((1-(4-benzylpiperazin-1-yl)cyclopropyl)methyl)-N-(3-cyanophenyl)propionamide] | < 500 | – |

| SMILES | Ki [nM] | other results |
| --- | --- | --- |
| CCC(=O)N(CC1(N2CCN(Cc3ccccc3)CC2)CCOCC1)C(C)c1ccccc1 (stereo not shown) [Example 13, N-((4-(4-benzylpiperazin-1-yl)tetrahydro-2H-pyran-4-yl)methyl)-N-(1-phenylethyl)propionamide] | < 100 | – |
| CCC(=O)N(CC1(N2CCN(Cc3ccc(OC)nc3)CC2)CCOCC1)c1ccccc1 [Example 109, N-((4-(4-((6-methoxypyridin-3-yl)methyl)piperazin-1-yl)tetrahydro-2H-pyran-4-yl)methyl)-N-phenylpropionamide] | < 500 | – |
| CCC(=O)N(CC1(N2CCN(Cc3cccnc3)CC2)CC1)c1ccccc1 [Example 119, N-phenyl-N-((1-(4-(pyridin-3-ylmethyl)piperazin-1-yl)cyclopropyl)methyl)propionamide] | < 500 | – |
| CCC(=O)N(CC1(N2CCN(Cc3ccccc3)CC2)CCOC(C)(C)C1)c1cccc(C#N)n1 (stereo not shown) [Example 65, N-((4-(4-benzylpiperazin-1-yl)-2,2-dimethyltetrahydro-2H-pyran-4-yl)methyl)-N-(6-cyanopyridin-2-yl)propionamide] | < 500 | – |
| CCC(=O)N(CC(C)(C)N1CCN(CCc2ncccc2F)CC1)c1ccccn1 [Example 70, N-(2-(4-(2-(3-fluoropyridin-2-yl)ethyl)piperazin-1-yl)-2-methylpropyl)-N-(pyridin-2-yl)propionamide] | – | μ and σ1 dual (binding to the σ1 receptor and the μ-opioid receptor expressed as Ki): ++ |
| CCC(=O)N(CC(C)(C)N1CCN(CCc2ncccc2F)CC1)c1ccccc1 [Example 72, N-(2-(4-(2-(3-fluoropyridin-2-yl)ethyl)piperazin-1-yl)-2-methylpropyl)-N-phenylpropionamide] | – | μ and σ1 dual (binding to the σ1 receptor and the μ-opioid receptor expressed as Ki): ++ |
| CCC(=O)N(CC1(N2CCN(Cc3ccccc3)CC2)CCOCC1)c1ncccc1C(F)(F)F [Example 59, N-((4-(4-benzylpiperazin-1-yl)tetrahydro-2H-pyran-4-yl)methyl)-N-(3-(trifluoromethyl)pyridin-2-yl)propionamide] | < 500 | – |
| CCC(=O)N(CC1(N2CCN(Cc3ccccc3)CC2)CCOCC1)c1ccc(F)cn1 [Example 6, N-((4-(4-benzylpiperazin-1-yl)tetrahydro-2H-pyran-4-yl)methyl)-N-(5-fluoropyridin-2-yl)propionamide] | < 500 | – |
| CCC(=O)N(Cc1ccccc1)CC1(N2CCN(Cc3ccccc3)CC2)CCOCC1 [Example 14, N-benzyl-N-((4-(4-benzylpiperazin-1-yl)tetrahydro-2H-pyran-4-yl)methyl)propionamide] | – | μ and σ1 dual (binding to the σ1 receptor and the μ-opioid receptor expressed as Ki): ++ |
| CCC(=O)N(CC1(N2CCN(Cc3ccccc3)CC2)CCOCC1)c1ccccc1F [Example 4, N-((4-(4-benzylpiperazin-1-yl)tetrahydro-2H-pyran-4-yl)methyl)-N-(2-fluorophenyl)propionamide] | < 100 | – |
| CCC(=O)N(CC1(N2CCN(Cc3ncccc3F)CC2)CC1)c1ccccc1 [Example 120, N-((1-(4-((3-fluoropyridin-2-yl)methyl)piperazin-1-yl)cyclopropyl)methyl)-N-phenylpropionamide] | > 500 | – |
| CCC(=O)N(CC1(N2CCN(CCOC(C)C)CC2)CCOCC1)c1ccccn1 [Example 152, N-((4-(4-(2-isopropoxyethyl)piperazin-1-yl)tetrahydro-2H-pyran-4-yl)methyl)-N-(pyridin-2-yl)propionamide] | > 500 | – |
| CCC(=O)N(CC1(N2CCN(CC(C)C)CC2)CC1)c1cccc(C(F)(F)F)n1 [Example 123, N-((1-(4-isobutylpiperazin-1-yl)cyclopropyl)methyl)-N-(6-(trifluoromethyl)pyridin-2-yl)propionamide] | < 100 | – |
| CCC(=O)N(CC1(N2CCN(CC(C)C)CC2)CCOCC1)c1ncccc1F [Example 158, N-(3-fluoropyridin-2-yl)-N-((4-(4-isobutylpiperazin-1-yl)tetrahydro-2H-pyran-4-yl)methyl)propionamide] | – | μ and σ1 dual (binding to the σ1 receptor and the μ-opioid receptor expressed as Ki): ++ |
| CCC(=O)N(CC1(N2CCN(CCC(C)C)CC2)CCOCC1)c1cccc(C#N)n1 [Example 86, N-(6-cyanopyridin-2-yl)-N-((4-(4-isopentylpiperazin-1-yl)tetrahydro-2H-pyran-4-yl)methyl)propionamide] | < 500 | – |
| CCC(=O)N(CC1(N2CCN(CCOCC(C)(C)F)CC2)CCOCC1)c1cccc(C(F)(F)F)n1 [Example 189, N-((4-(4-(2-(2-fluoro-2-methylpropoxy)ethyl)piperazin-1-yl)tetrahydro-2H-pyran-4-yl)methyl)-N-(6-(trifluoromethyl)pyridin-2-yl)propionamide] | < 100 | – |
| CCC(=O)N(CC1(N2CCN(Cc3ccc(C(F)(F)F)nc3)CC2)CC1)c1ccccc1 [Example 113, N-phenyl-N-((1-(4-((6-(trifluoromethyl)pyridin-3-yl)methyl)piperazin-1-yl)cyclopropyl)methyl)propionamide] | – | μ and σ1 dual (binding to the σ1 receptor and the μ-opioid receptor expressed as Ki): ++ |
